Reference: US20010011063A1, “Substituted 2,4-diamino-1,3,5-triazines, processes for their preparation and their use as herbicides and plant growth regulators” (priority 1999, published 2001)

Experiments:
Type in all cases: in vivo
[1] = test system: Sinapis alba, Echinochloa crus-galli, Lolium multiforum, Stellaria media, Cyperus iria, Amaranthus retroflexus, Settaria viridis and Avena sativa; test: Post-emergence effect on weeds (greenhouse pot test); conditions: application rate of 1 kg or less of active substance per hectare; treated at the three-leaf stage; scored visually after about 3 to 4 weeks vs untreated controls
Method: Seeds or rhizome pieces of mono- and dicotyledonous weeds are placed in sandy loam soil in plastic pots, covered with soil and grown in a greenhouse under good growth conditions. Three weeks after sowing, the test plants are treated at the three-leaf stage. The compounds according to the invention, formulated as wettable powders or emulsion concentrates, are sprayed, at various dosages, onto the green parts of the plants at an application rate of 600 to 800 l of water/ha (converted). After the test plants had remained in the greenhouse for about 3 to 4 weeks under optimum growth conditions, the effect of the preparations is scored visually by comparison with untreated controls. The agents according to the invention also have good herbicidal activity post-emergence against a broad spectrum of economically important weed grasses and broad-leaved weeds.

[2] = test system: Cyperus monti, Echinochloa crus-galli and Sagitaria pygmaea; test: Action on harmful plants in rice (paddy rice conditions); conditions: poured into the dammed water, visual scoring about three weeks after application; note: test concentration or dose not given here
Source text: Transplanted and sown rice and also typical rice weeds (gramineous and broad-leaved) are cultivated in closed plastic pots in a greenhouse to the three-leaf stage (Echinochloa crus-galli 1.5-leaf) under paddy rice conditions (height of water: 2-3 cm). This is followed by treatment with the compounds according to the invention. For this purpose, the formulated active compounds are suspended, dissolved or emulsified in water and applied by pouring them into the dammed water around the test plants in different dosages.

[3] = test system: Stellaria media, Lolium multiflorum, Amaranthus retroflexus, Sinapis alba, Avena sativa and Settaria viridis; test: Pre-emergence effect on weeds (greenhouse pot test); conditions: application rate of 1 kg or less of active substance per hectare; visually scored after 3 to 4 weeks by comparison with untreated controls
Source text: Seeds or rhizome pieces of mono and dicotyledonous weed plants are placed in sandy loam soil in plastic pots and covered with soil. The compounds according to the invention which are formulated in the form of wettable powders or emulsion concentrates are then applied to the soil cover in the form of aqueous suspensions or emulsions at an application rate of 600 to 800 l of water/ha (converted), in various dosages.

Structure (SMILES): CC(C)(F)c1nc(N)nc(NC(CCc2ccccc2)CC2CC2(F)F)n1 (mixture of isomers) [Example 1-157]
- herbicidal activity post-emergence against harmful plants [1]: very good herbicidal activity
- herbicidal activity against harmful plants which are typical for rice crops [2]: very good herbicidal activity
- herbicidal activity pre-emergence against harmful plants [3]: very good herbicidal activity

Structure (SMILES): CC(C)c1nc(N)nc(NC(CCc2ccccc2)CC2CC2(F)F)n1 (mixture of isomers) [Example 1-158]
- herbicidal activity post-emergence against harmful plants [1]: very good herbicidal activity
- herbicidal activity against harmful plants which are typical for rice crops [2]: very good herbicidal activity
- herbicidal activity pre-emergence against harmful plants [3]: very good herbicidal activity

Structure (SMILES): CC(C)(F)c1nc(N)nc(NC(CCc2cccc(F)c2)C2CC2(Cl)Cl)n1 (mixture of isomers) [Example 2-6]
- herbicidal activity post-emergence against harmful plants [1]: very good herbicidal activity

Structure (SMILES): CC(C)(F)c1nc(N)nc(NC(CCc2ccccc2)CC2CC2(F)F)n1 (mixture of isomers) [Example 2-157]
- herbicidal activity post-emergence against harmful plants [1]: very good herbicidal activity
- herbicidal activity against harmful plants which are typical for rice crops [2]: very good herbicidal activity
- herbicidal activity pre-emergence against harmful plants [3]: very good herbicidal activity

Structure (SMILES): CC(C)c1nc(N)nc(NC(CCc2ccccc2)CC2CC2(F)F)n1 (mixture of isomers) [Example 2-158]
- herbicidal activity post-emergence against harmful plants [1]: very good herbicidal activity
- herbicidal activity against harmful plants which are typical for rice crops [2]: very good herbicidal activity
- herbicidal activity pre-emergence against harmful plants [3]: very good herbicidal activity

Structure (SMILES): CC(F)c1nc(N)nc(NC(CCCc2ccccc2)C2CC2)n1 (mixture of isomers) [Example 3-3]
- herbicidal activity post-emergence against harmful plants [1]: very good herbicidal activity
- herbicidal activity against harmful plants which are typical for rice crops [2]: very good herbicidal activity
- herbicidal activity pre-emergence against harmful plants [3]: very good herbicidal activity

Structure (SMILES): CC(F)c1nc(N)nc(NC(CCCc2ccccc2)C2CC2)n1 (mixture of isomers) [Example 4-3]
- herbicidal activity post-emergence against harmful plants [1]: very good herbicidal activity
- herbicidal activity against harmful plants which are typical for rice crops [2]: very good herbicidal activity
- herbicidal activity pre-emergence against harmful plants [3]: very good herbicidal activity

Structure (SMILES): CC(C)c1nc(N)nc(N[C@@H](CCc2ccccc2)C2CCC2)n1 [Example 1-14]
- herbicidal activity post-emergence against harmful plants [1]: very good herbicidal activity
- herbicidal activity against harmful plants which are typical for rice crops [2]: very good herbicidal activity
- herbicidal activity pre-emergence against harmful plants [3]: very good herbicidal activity

Structure (SMILES): CC(C)(F)c1nc(N)nc(N[C@@H](CCc2ccccc2)C2CCC2)n1 [Example 1-15]
- herbicidal activity post-emergence against harmful plants [1]: very good herbicidal activity
- herbicidal activity against harmful plants which are typical for rice crops [2]: very good herbicidal activity
- herbicidal activity pre-emergence against harmful plants [3]: very good herbicidal activity

Structure (SMILES): Cc1nc(N)nc(N[C@@H](CCc2ccccc2)C2CCC2)n1 [Example 1-16]
- herbicidal activity post-emergence against harmful plants [1]: very good herbicidal activity
- herbicidal activity against harmful plants which are typical for rice crops [2]: very good herbicidal activity
- herbicidal activity pre-emergence against harmful plants [3]: very good herbicidal activity

Structure (SMILES): CC(C)c1nc(N)nc(N[C@@H](CCc2cccc(Cl)c2)C2CCC2)n1 [Example 1-23]
- herbicidal activity post-emergence against harmful plants [1]: very good herbicidal activity
- herbicidal activity against harmful plants which are typical for rice crops [2]: very good herbicidal activity
- herbicidal activity pre-emergence against harmful plants [3]: very good herbicidal activity

Structure (SMILES): CC(C)(F)c1nc(N)nc(N[C@@H](CCc2cccc(Cl)c2)C2CCC2)n1 [Example 1-24]
- herbicidal activity post-emergence against harmful plants [1]: very good herbicidal activity
- herbicidal activity against harmful plants which are typical for rice crops [2]: very good herbicidal activity
- herbicidal activity pre-emergence against harmful plants [3]: very good herbicidal activity

Structure (SMILES): Cc1cccc(CC[C@H](Nc2nc(N)nc(C(C)C)n2)C2CCC2)c1 [Example 1-27]
- herbicidal activity post-emergence against harmful plants [1]: very good herbicidal activity
- herbicidal activity against harmful plants which are typical for rice crops [2]: very good herbicidal activity
- herbicidal activity pre-emergence against harmful plants [3]: very good herbicidal activity

Structure (SMILES): Cc1cccc(CC[C@H](Nc2nc(N)nc(C(C)(C)F)n2)C2CCC2)c1 [Example 1-28]
- herbicidal activity post-emergence against harmful plants [1]: very good herbicidal activity
- herbicidal activity against harmful plants which are typical for rice crops [2]: very good herbicidal activity
- herbicidal activity pre-emergence against harmful plants [3]: very good herbicidal activity

Structure (SMILES): CC(C)c1nc(N)nc(N[C@@H](CCc2ccccc2)CC2CC2)n1 [Example 1-144]
- herbicidal activity post-emergence against harmful plants [1]: very good herbicidal activity
- herbicidal activity against harmful plants which are typical for rice crops [2]: very good herbicidal activity
- herbicidal activity pre-emergence against harmful plants [3]: very good herbicidal activity

Structure (SMILES): CC(C)(F)c1nc(N)nc(N[C@@H](CCc2ccccc2)CC2CC2)n1 [Example 1-145]
- herbicidal activity post-emergence against harmful plants [1]: very good herbicidal activity
- herbicidal activity against harmful plants which are typical for rice crops [2]: very good herbicidal activity
- herbicidal activity pre-emergence against harmful plants [3]: very good herbicidal activity

Structure (SMILES): CC(C)c1nc(N)nc(N[C@H](CCc2ccccc2)C2CCC2)n1 [Example 2-14]
- herbicidal activity post-emergence against harmful plants [1]: very good herbicidal activity
- herbicidal activity against harmful plants which are typical for rice crops [2]: very good herbicidal activity
- herbicidal activity pre-emergence against harmful plants [3]: very good herbicidal activity

Structure (SMILES): CC(C)(F)c1nc(N)nc(N[C@H](CCc2ccccc2)C2CCC2)n1 [Example 2-15, 2-Amino-4-(1-fluoro-1-methylethyl)-6-[(1 R)-3-phenyl-1-cyclobutyl-1-propylamino]-1,3,5-triazine]
- herbicidal activity post-emergence against harmful plants [1]: very good herbicidal activity
- herbicidal activity against harmful plants which are typical for rice crops [2]: very good herbicidal activity
- herbicidal activity pre-emergence against harmful plants [3]: very good herbicidal activity

Structure (SMILES): Cc1nc(N)nc(N[C@H](CCc2ccccc2)C2CCC2)n1 [Example 2-16]
- herbicidal activity against harmful plants which are typical for rice crops [2]: very good herbicidal activity
- herbicidal activity pre-emergence against harmful plants [3]: very good herbicidal activity

Structure (SMILES): CC(C)c1nc(N)nc(N[C@H](CCc2cccc(Cl)c2)C2CCC2)n1 [Example 2-23]
- herbicidal activity post-emergence against harmful plants [1]: very good herbicidal activity
- herbicidal activity against harmful plants which are typical for rice crops [2]: very good herbicidal activity
- herbicidal activity pre-emergence against harmful plants [3]: very good herbicidal activity

Structure (SMILES): CC(C)(F)c1nc(N)nc(N[C@H](CCc2cccc(Cl)c2)C2CCC2)n1 [Example 2-24]
- herbicidal activity post-emergence against harmful plants [1]: very good herbicidal activity
- herbicidal activity against harmful plants which are typical for rice crops [2]: very good herbicidal activity
- herbicidal activity pre-emergence against harmful plants [3]: very good herbicidal activity

Structure (SMILES): Cc1cccc(CC[C@@H](Nc2nc(N)nc(C(C)C)n2)C2CCC2)c1 [Example 2-27]
- herbicidal activity post-emergence against harmful plants [1]: very good herbicidal activity
- herbicidal activity against harmful plants which are typical for rice crops [2]: very good herbicidal activity
- herbicidal activity pre-emergence against harmful plants [3]: very good herbicidal activity

Structure (SMILES): Cc1cccc(CC[C@@H](Nc2nc(N)nc(C(C)(C)F)n2)C2CCC2)c1 [Example 2-28]
- herbicidal activity post-emergence against harmful plants [1]: very good herbicidal activity
- herbicidal activity against harmful plants which are typical for rice crops [2]: very good herbicidal activity
- herbicidal activity pre-emergence against harmful plants [3]: very good herbicidal activity

Structure (SMILES): CC(C)c1nc(N)nc(N[C@H](CCc2ccccc2)CC2CC2)n1 [Example 2-144]
- herbicidal activity post-emergence against harmful plants [1]: very good herbicidal activity
- herbicidal activity against harmful plants which are typical for rice crops [2]: very good herbicidal activity
- herbicidal activity pre-emergence against harmful plants [3]: very good herbicidal activity

Structure (SMILES): CC(C)(F)c1nc(N)nc(N[C@H](CCc2ccccc2)CC2CC2)n1 [Example 2-145]
- herbicidal activity post-emergence against harmful plants [1]: very good herbicidal activity
- herbicidal activity against harmful plants which are typical for rice crops [2]: very good herbicidal activity
- herbicidal activity pre-emergence against harmful plants [3]: very good herbicidal activity
